Key:
KRAS WT = KRAS WT (Homo sapiens, UniProt P01116); test: SOS-catalyzed nucleotide exchange assay, KRAS WT (Procedure A); assay type: biochemical; conditions: GNE
Outline: (§1)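 Compounds in 10-point 3-fold series sat 60 min with biotin-KRAS/Bodipy-GDP/Tb-streptavidin complex, then human SOS and 3 mM GTP were added. G13D: 1.25 nM KRAS, no SOS, 30 min. WT and G12D: 1 nM with 40 nM SOS, 60 min. G12C (C51S/C80L/C118S): 3 nM/40 nM, 60 min. Curves fitted from normalised TR-FRET 520/495 ratio.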

PANC08.13 cells = target: T1, PANC08.13 cells (Homo sapiens, UniProt P01116, G12D); test: Cellular phospho-ERK assay, PANC08.13 cells (KRAS G12D); assay type: cell-based; conditions: 2 hours, read-out: PANCO 813 pERK IC50
T1 construct: p-ERK/total ERK AlphaSureFire read-out
T1 sequence (P01116 1-188 isoform P01116-2 G12D): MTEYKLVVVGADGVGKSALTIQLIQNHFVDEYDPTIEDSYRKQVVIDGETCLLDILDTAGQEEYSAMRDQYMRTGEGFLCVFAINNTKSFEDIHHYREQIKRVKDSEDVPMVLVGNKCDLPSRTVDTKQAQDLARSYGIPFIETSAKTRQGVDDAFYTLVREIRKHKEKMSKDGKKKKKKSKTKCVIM
Description: Procedure for Cellular Phospho-ERK Assay in KRAS Wild Type and Mutant (G12D, G12V) Cell Lines
PANC08.13 cells (ATCC® CRL-2551™), containing homozygous KRAS-G12D activating mutation, were cultured in growth medium made of RPMI1640-GlutaMAX™-I (ThermoFisher Scientific 61870) containing 15% heat inactivated fetal bovine serum (ThermoFisher Scientific 10091148)). AsPC-1 cells (ATCC® CRL-1682™), containing homozygous KRAS-G12D activating mutation, were cultured in T150 flask in growth medium (RPMI medium 1640-GlutaMAX™-I (ThermoFisher Scientific 61870) containing 10% fetal bovine serum (ThermoFisher Scientific 10091148)).
Cells for the assay were harvested in growth medium after TrypLE (ThermoFisher scientific 12604021) digestion and were seeded in a 384-well collagen coated cell culture plate (Corning 356702) at a density of 10,000-15,000 cells/20 μL/well, and incubated at 37° C., 5% CO2 overnight. The compound (with 10 mM stock concentration) dose-response titrations were prepared [30 μM final ERK detection assay concentration and 1:3 dilutions, 10-point dose response] and appropriate amounts (270 nL) of test compounds were dispensed in a 384-well intermediate plate using an Echo 550 liquid handler. 30 μL/well of RPMI medium 1640-GlutaMAX™-I was added to the intermediate plate and the contents of the intermediate plate (10 μL/well) were then transferred to the 384-well collagen coated cell culture plate, which was incubated at 37° C., 5% CO2 for 2 hours. After removal of medium from the collagen coated cell culture plate, cells were lysed in lysis buffer from Alpha SureFire® Ultra™ Multiplex p-ERK and total ERK assay kit (PerkinElmer MPSU-PTERK) containing Halt™ Protease and Phosphatase inhibitor cocktail (ThermoFisher Scientific 78446) at room temperature with constant shaking at 300 rpm for 30 minutes. The cell lysates were then transferred to an OptiPlate-384 plate (PerkinElmer 6005620), and the phosphorylation of ERK (p-ERK) and total ERK levels were detected by Alpha SureFire® Ultra™ Multiplex p-EEK kit and total ERK assay kit (PerkinElmer MPSU-PTERK) following the manufacturer's protocol. Assay plates were read on a EnVision Multimode Plate Reader (PerkinElmer), and the ratio of p-ERK vs. total ERK in each well was used as the final readout. Dose response curves were analyzed using a 4-parameter logistic model to calculate IC50 values using Spotfire software.

KRAS G12C = KRAS G12C (Homo sapiens, UniProt P01116, C118S/C51S/C80L/G12C); test: SOS-catalyzed nucleotide exchange assay, KRAS G12C (Procedure A); assay type: biochemical; conditions: GNE
KRAS G12C, sequence (P01116 with tags, fused parts or gaps isoform P01116-2 G12C/C51S/C80L/C118S): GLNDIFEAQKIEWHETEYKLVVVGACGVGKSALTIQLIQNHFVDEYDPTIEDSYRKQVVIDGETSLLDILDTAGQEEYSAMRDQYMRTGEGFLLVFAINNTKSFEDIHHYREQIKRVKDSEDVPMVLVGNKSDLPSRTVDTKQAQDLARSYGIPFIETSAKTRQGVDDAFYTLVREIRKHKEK
Outline: as §1

NRAS = NRAS (Homo sapiens, UniProt P01111); test: SOS-catalyzed nucleotide exchange assay, NRAS (Procedure A); assay type: biochemical; conditions: GNE
NRAS, sequence (P01111 with tags, fused parts or gaps): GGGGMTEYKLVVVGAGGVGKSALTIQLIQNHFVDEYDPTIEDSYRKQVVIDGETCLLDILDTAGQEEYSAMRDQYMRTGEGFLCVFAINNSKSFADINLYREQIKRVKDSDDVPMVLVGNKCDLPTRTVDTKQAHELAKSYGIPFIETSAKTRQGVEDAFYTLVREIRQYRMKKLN
Outline: (§2)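 60 min cpd preinc. w/ RAS–Bodipy-GDP–Tb-SA complex; + hSOS/GTP (3 mM final), RT. G12C 3 nM RAS/40 nM SOS; WT, G12D 1 nM/40 nM; 60 min rxn. G13D 1.25 nM, no SOS, 30 min rxn. HEPES pH 7.5, 10 mM MgCl2. Ratio 520/495, norm. to DMSO/max-inhibitor ctrls.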

KRAS G13D = KRAS G13D (Homo sapiens, UniProt P01116, G13D); test: SOS-catalyzed nucleotide exchange assay, KRAS G13D (Procedure A); assay type: biochemical; conditions: GNE
KRAS G13D, sequence (P01116 with tags, fused parts or gaps isoform P01116-2 G13D): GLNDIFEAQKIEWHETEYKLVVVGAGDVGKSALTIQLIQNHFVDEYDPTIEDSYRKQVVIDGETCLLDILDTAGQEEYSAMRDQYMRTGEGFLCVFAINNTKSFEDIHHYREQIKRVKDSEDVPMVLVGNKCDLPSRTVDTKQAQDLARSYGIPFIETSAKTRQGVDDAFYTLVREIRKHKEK
Outline: as §1

HRAS = HRAS (Homo sapiens, UniProt P01112); test: SOS-catalyzed nucleotide exchange assay, HRAS (Procedure A); assay type: biochemical; conditions: GNE
HRAS, sequence (P01112 with tags, fused parts or gaps): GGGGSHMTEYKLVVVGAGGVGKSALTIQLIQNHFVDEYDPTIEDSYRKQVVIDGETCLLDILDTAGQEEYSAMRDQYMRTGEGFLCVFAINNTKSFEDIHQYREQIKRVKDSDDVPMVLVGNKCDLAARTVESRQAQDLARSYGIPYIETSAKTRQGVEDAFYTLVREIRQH
Outline: as §2

KRAS G12D = KRAS G12D (Homo sapiens, UniProt P01116, G12D); test: SOS-catalyzed nucleotide exchange assay, KRAS G12D (Procedure A); assay type: biochemical; conditions: guanine nucleotide exchange (GNE)
KRAS G12D, sequence (P01116 with tags, fused parts or gaps isoform P01116-2 G12D): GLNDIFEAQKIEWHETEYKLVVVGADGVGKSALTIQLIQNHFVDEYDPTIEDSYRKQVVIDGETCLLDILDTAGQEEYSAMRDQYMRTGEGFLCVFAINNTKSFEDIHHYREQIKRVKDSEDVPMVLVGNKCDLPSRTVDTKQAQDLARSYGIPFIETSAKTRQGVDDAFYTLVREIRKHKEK
Outline: as §1

KRAS G12V = KRAS G12V (Homo sapiens, UniProt P01116, G12V); test: SOS-catalyzed nucleotide exchange assay, KRAS G12V (Procedure A); assay type: biochemical; conditions: GNE
KRAS G12V, sequence (P01116 with tags, fused parts or gaps isoform P01116-2 G12V): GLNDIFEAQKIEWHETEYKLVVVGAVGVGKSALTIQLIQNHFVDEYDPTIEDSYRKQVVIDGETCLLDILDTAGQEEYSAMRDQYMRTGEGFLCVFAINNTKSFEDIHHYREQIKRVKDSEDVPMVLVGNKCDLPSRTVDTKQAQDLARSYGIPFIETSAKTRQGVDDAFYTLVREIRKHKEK
Outline: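 Biotinylated KRAS G12V was loaded with Bodipy-GDP alongside Terbium-streptavidin to form a TR-FRET complex, which was preincubated with compounds for 60 minutes in 384-well plates. Human SOS protein and unlabeled GTP were then added for 90 minutes, giving final concentrations of 1.25 nM KRAS-G12V, 160 nM SOS and 3 mM GTP. The 520/495 nm emission ratio was read on an Envision.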

KRAS WT, sequence (P01116 with tags, fused parts or gaps isoform P01116-2): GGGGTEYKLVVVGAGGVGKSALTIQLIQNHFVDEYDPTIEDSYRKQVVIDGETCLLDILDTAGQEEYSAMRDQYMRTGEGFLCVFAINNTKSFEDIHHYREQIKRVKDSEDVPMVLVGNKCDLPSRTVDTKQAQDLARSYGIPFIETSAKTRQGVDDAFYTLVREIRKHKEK

Row | SMILES | IC50 (KRAS WT) | IC50 (PANC08.13 cells) | IC50 (KRAS G12C) | IC50 (NRAS) | IC50 (KRAS G13D) | IC50 (HRAS) | IC50 (KRAS G12D) | IC50 (KRAS G12V)
1 | Cc1cc2[nH]nc(C#N)c2c(-c2nccc3c4c(N5C[C@H]6CC[C@@H](C5)N6)nc(OC[C@@]56CCCN5C[C@H](F)C6)nc4n(C)c23)c1C(F)F (single isomer, unassigned) [Ex-4] | > 11.1 µM | 3.75 µM | > 11.1 µM | > 11.1 µM | 4.02 µM | > 11.1 µM | 0.119 µM | > 11.1 µM
2 | C#Cc1c(F)ccc2cc(N)nc(-c3nccc4c5c(N6C[C@H]7CC[C@@H](C6)N7)nc(OC[C@@]67CCCN6C[C@H](F)C7)nc5n(C)c34)c12 [Ex-7, 1-(4-((1R,5S)-3,8-diazabicyclo[3.2.1]octan-3-yl)-2-(((2R,7aS)-2-fluorotetrahydro-1H-pyrrolizin-7a(5H)-yl)methoxy)-9-methyl-9H-pyrido[4′,3′:4,5]pyrrolo[2,3-d]pyrimidin-8-yl)-8-ethynyl-7-fluoroisoquinolin-3-amine] | > 11.1 µM | 0.572 µM | > 11.1 µM | > 11.1 µM | 1.45 µM | > 11.1 µM | 0.051 µM | > 11.1 µM
3 | Nc1nc2c(-c3nccc4c3sc3nc(OC[C@@]56CCCN5C[C@H](F)C6)nc(N5C[C@H]6CC[C@@H](C5)N6)c34)ccc(F)c2s1 [Ex-16, 4-(4-((1R,5S)-3,8-diazabicyclo[3.2.1]octan-3-yl)-2-(((2R,7aS)-2-fluorotetrahydro-1H-pyrrolizin-7a(5H)-yl)methoxy)pyrido[4′,3′:4,5]thieno [2,3-d]pyrimidin-8-yl)-7-fluorobenzo[d]thiazol-2-amine] | > 11.1 µM | 9.74 µM | – | – | – | – | 0.283 µM | > 11.1 µM
4 | Cc1cc2[nH]ncc2c(-c2nccc3c2sc2nc(OC[C@]4(CO)CC4(F)F)nc(N4C[C@H]5CC[C@@H](C4)N5)c23)c1OC(F)F [Ex-51, ((1R)-1-(((4-((1R,5S)-3,8-diazabicyclo[3.2.1]octan-3-yl)-8-(5-(difluoromethoxy)-6-methyl-1H-indazol-4-yl)pyrido[4′,3′:4,5]thieno[2,3-d]pyrimidin-2-yl)oxy)methyl)-2,2-difluorocyclopropyl)methanol] | > 11.1 µM | 6.81 µM | – | – | – | – | 2.15 µM | > 11.1 µM
5 | N#Cc1c(N)sc2c(F)cc(F)c(-c3nccc4c3sc3nc(OC[C@]5(CO)CC5(F)F)nc(N5C[C@H]6CC[C@@H](C5)N6)c34)c12 [Ex-61, 4-(4-((1R,5S)-3,8-diazabicyclo[3.2.1]octan-3-yl)-2-(((R)-2,2-difluoro-1-(hydroxymethyl)cyclopro-pyl)methoxy)pyrido[4′,3′: 4,5]thieno[2,3-d]pyrimidin-8-yl)-2-amino-5,7-difluorobenzo[b]thiophene-3-carbonitrile] | > 11.1 µM | 7.35 µM | – | – | – | – | 0.859 µM | > 11.1 µM
6 | Cc1cc2[nH]ncc2c(-c2nccc3c2sc2nc(OCC4(CO)CCC4)nc(N4C[C@H]5CC[C@@H](C4)N5)c23)c1C(F)F [Ex-64, (1-(((4-((1R,5S)-3,8-diazabicyclo[3.2.1]octan-3-yl)-8-(5-(difluoromethyl)-6-methyl-1H-indazol-4-yl)pyrido[4′,3′:4,5]thieno[2,3-d]pyrimidin-2-yl)oxy)methyl)cyclobutyl)methanol] | > 11.1 µM | > 10 µM | – | – | – | – | 9.42 µM | > 11.1 µM

Results, then the molecule that gave them:

Row | IC50 (KRAS WT) | IC50 (PANC08.13 cells) | IC50 (KRAS G12C) | IC50 (NRAS) | IC50 (KRAS G13D) | IC50 (HRAS) | IC50 (KRAS G12D) | IC50 (KRAS G12V) | SMILES
7 | > 11.1 µM | 1.19 µM | > 11.1 µM | > 11.1 µM | 0.349 µM | > 11.1 µM | 0.018 µM | > 11.1 µM | Cn1c2nc(OC[C@@]34CCCN3C[C@H](F)C4)nc(N3C[C@H]4CC[C@@H](C3)N4)c2c2ccnc(-c3ccc(F)c4sc(N)c(C#N)c34)c21 [Ex-5, 4-(4-((1R,5S)-3,8-diazabicyclo[3.2.1]octan-3-yl)-2-(((2R,7aS)-2-fluorotetrahydro-1H-pyrrolizin-7a(5H)-yl)methoxy)-9-methyl-9H-pyrido[4′,3′:4,5]pyrrolo[2,3-d]pyrimidin-8-yl)-2-amino-7-fluorobenzo[b]thiophene-3-carbonitrile]
8 | > 11.1 µM | 9.85 µM | > 11.1 µM | > 11.1 µM | > 11.1 µM | > 11.1 µM | 0.906 µM | > 11.1 µM | Cc1cc(N)nc(-c2nccc3c4c(N5C[C@H]6CC[C@@H](C5)N6)nc(OC[C@@]56CCCN5C[C@H](F)C6)nc4n(C)c23)c1C(F)(F)F [Ex-6, 6-(4-((1R,5S)-3,8-diazabicyclo[3.2.1]octan-3-yl)-2-(((2R,7aS)-2-fluorotetrahydro-1H-pyrrolizin-7a(5H)-yl)methoxy)-9-methyl-9H-pyrido[4′,3′:4,5]pyrrolo[2,3-d]pyrimidin-8-yl)-4-methyl-5-(trifluoromethyl)pyridin-2-amine]
9 | > 11.1 µM | 2.48 µM | – | – | – | – | 0.698 µM | > 11.1 µM | CCn1c2nc(OC[C@@]34CCCN3C[C@H](F)C4)nc(N3C[C@H]4CC[C@@H](C3)N4)c2c2ccnc(-c3c(C(F)(F)F)c(C)cc4[nH]ncc34)c21 [Ex-11, 4-((1R,5S)-3,8-diazabicyclo[3.2.1]octan-3-yl)-9-ethyl-2-(((2R,7aS)-2-fluorotetrahydro-1H-pyrrolizin-7a(5H)-yl)methoxy)-8-(6-methyl-5-(trifluoromethyl)-1H-indazol-4-yl)-9H-pyrido[4′,3′:4,5]pyrrolo[2,3-d]pyrimidine]
10 | > 11.1 µM | 0.666 µM | – | – | – | – | 0.123 µM | > 11.1 µM | Cc1cc2[nH]nc(C#N)c2c(-c2nccc3c2sc2nc(OC[C@@]45CCCN4C[C@H](F)C5)nc(N4C[C@H]5CC[C@@H](C4)N5)c23)c1C(F)F [Ex-18, 4-(4-((1R,5S)-3,8-diazabicyclo[3.2.1]octan-3-yl)-2-(((2R,7aS)-2-fluorotetrahydro-1H-pyrrolizin-7a(5H)-yl)methoxy)pyrido[4′,3′:4,5]thieno[2,3-d]pyrimidin-8-yl)-5-(difluoromethyl)-6-methyl-1H-indazole-3-carbonitrile]
11 | > 11.1 µM | 2.77 µM | – | – | – | – | 0.724 µM | > 11.1 µM | Cc1cc2[nH]ncc2c(-c2nccc3c2sc2nc(OC[C@]4(CO)CC4(F)F)nc(N4C[C@H]5CC[C@@H](C4)N5)c23)c1OC(F)(F)Cl [Ex-52, ((1R)-1-(((4-((1R,5S)-3,8-diazabicyclo[3.2.1]octan-3-yl)-8-(5-(chlorodifluoromethoxy)-6-methyl-1H-indazol-4-yl)pyrido[4′,3′:4,5]thieno[2,3-d]pyrimidin-2-yl)oxy)methyl)-2,2-difluorocyclopro-pyl)methanol]
12 | > 11.1 µM | 10 µM | – | – | – | – | 2.69 µM | > 11.1 µM | N#Cc1c(N)sc2c(F)ccc(-c3nccc4c3sc3nc(OC[C@]5(CO)CC5(F)F)nc(N5CC6CCC(C5)N6)c34)c12 [Ex-60, 4-(4-(3,8-diazabicyclo[3.2.1]octan-3-yl)-2-(((R)-2,2-difluoro-1-(hydroxymethyl)cyclopropyl)methoxy)pyrido[4′,3′:4,5]thieno[2,3-d]pyrimidin-8-yl)-2-amino-7-fluorobenzo[b]thiophene-3-carbonitrile]

Source: patent US20260347372A1, “SMALL MOLECULE INHIBITORS OF KRAS G12D MUTANT” (MERCK SHARP & DOHME LLC, priority 2023, published 2026)
